Values joined by “and” are separate entries in the source; they are usually repeats but may differ in a detail not shown here. Identical values can stand only once. Like-named read-outs stand apart in the source and are kept apart here.
Assays:
[1] = test system: dogs diagnosed with idiopathic epilepsy; assay: Efficacy of gabapentin vs phenobarbital against idiopathic epilepsy in dogs (seizure episodes, adverse effects); format: in vivo; conditions: for Seizure number per month prior to the study: baseline; for Seizure number per month prior to the study / Clinical adverse effects observed / Seizure number per month after the study / Changes in the type of seizure: individual dogs; for Seizure number per month after the study: monitored 3 months
Experimental: a) G0-E Group: treated with phenobarbital at dose of 2 mg/Kg of body weight, every 12 hours.
b) G1-E Study Group: treated with gabapentin of 10 mg/Kg of body weight, divided 3 times a day by oral administration.
c) G2-E Study Group: treated with gabapentin of 20 mg/Kg of body weight, divided 3 times a day by oral administration.
Patients were monitored for 3 consecutive months, quantifying seizure episodes for each of the patients, obtaining the following: […]

[2] = test system: cats; conditions: cited from earlier work
[3] = test system: dogs; conditions: cited from earlier work
[4] = test system: horses; conditions: 2 g/12 h/IV for 8 days; cited from earlier work
[5] = test system: dogs; conditions: cited from earlier work; remark: listed apart in the source
[6] = test system: cats; conditions: for 10 and 12 days; cited from earlier work
[7] = test system: plasma proteins; conditions: cited from earlier work
[8] = test system: dogs with moderate to severe osteoarthritis; assay: Pain caused by osteoarthritis in dogs, Subjective Clinical Evaluation System; format: in vivo; conditions: for Subjective Clinical Evaluation System, global observations: Medians±EE; for Result for the pain treatment (different pain assessment questionnaires): dogs with osteoarthritis, oral, every 12 hours, 8 weeks
Experimental: (§1) In addition to the tests performed for the treatment of epilepsy, the effect of gabapentin in the pain treatment in dogs caused by osteoarthritis was evaluated, 30 animals of race, age, weight and variable sex were used, with 3/5 of body condition and clinical and radiological signs from moderate to severe of osteoarthritis, according to the Bioarth scale. Two study groups were formed:
(§2) a) G0-D Group: treated with fluoxetine at dose of 1 mg/Kg of body weight, every 12 hours, orally.
(§3) b) G1-D Group: treated with gabapentin of 1.5-10 mg/Kg of body weight, every 12 hours, orally.
(§4) The dogs were monitored 8 consecutive weeks by applying the questionnaires of the Subjective Clinical Evaluation System, Liverpool Osteoarthritis in Dogs and the Helsinki Chronic Pain Index to the owners of the dogs, before and after administration of the treatments.
The Subjective Clinical Evaluation System includes the following evaluation points:
3) Mobility of the affected joint: (0) No limitation of movement and no crepitus is palpable, (1) slight decrease in range of motion (10-20%), no crepitus is palpable, (2) slight decrease in range of motion (10-20%) with palpable crepitation, (3) moderate decrease in range of motion (20-50%) and (4) severe decrease in range of motion (>50%) with palpable crepitus.
4) Hold the contralateral limb high: (0) quickly accept to raise the contralateral limb, (1) offer resistance to the contralateral limb elevation, but maintain its weight on the affected limb for more than one minute, (2) offer moderate resistance to the elevation of the contralateral limb and replaces it after 30 seconds, (3) it offers resistance to the elevation of the contralateral limb and replaces it after 10 seconds and (4) refuses to elevate the contralateral limb.
Statistically significant values were considered for a level of p<0.05.

[9] = test system: dogs with moderate to severe osteoarthritis; assay: Pain caused by osteoarthritis in dogs, Liverpool Osteoarthritis in Dogs questionnaire; format: in vivo; set-up: scale not given here; conditions: Medians±EE
Experimental: as §1, §2, §3, §4
The results of the global observations made by the owners with the Liverpool Osteoarthritis in Dogs questionnaire expressed in Medians±EE are presented in Table 3. The Wilcoxon ranks test was performed using the SPSS Statistics program considering statistically significant values for a level of p<0.05.

[10] = test system: dogs with moderate to severe osteoarthritis; assay: Pain caused by osteoarthritis in dogs, Helsinki Chronic Pain Index questionnaire; format: in vivo; conditions: Medians±EE
Experimental: as §1, §2, §3, §4
The results of the global observations made by the owners with the Helsinki Chronic Pain Index questionnaire expressed in Medians±EE are presented in Table 3. The Wilcoxon ranks test was performed using the SPSS Statistics program considering statistically significant values for a level of p<0.05.

[11] = test system: calf dehorning; conditions: gabapentin 15 mg/Kg oral, alone or with meloxicam; cited from earlier work
[12] = test system: neuropathic pain; conditions: individually, maximum effect at 60 minutes post-treatment, cited from earlier work
[13] = horses, cited from earlier work
[14] = horses; 5 mg/Kg oral; cited from earlier work
[15] = reported in dogs; cited from earlier work
[16] = G0-E, phenobarbital 2 mg/Kg every 12 hours
[17] = G1-E, gabapentin 10 mg/Kg divided 3 times a day, oral
[18] = G2-E, gabapentin 20 mg/Kg divided 3 times a day, oral
[19] = G1-D, gabapentin 1.5-10 mg/Kg every 12 hours orally, WEEK 0
[20] = G1-D, gabapentin 1.5-10 mg/Kg every 12 hours orally, WEEK 4
[21] = G1-D, gabapentin 1.5-10 mg/Kg every 12 hours orally, WEEK 8
[22] = G1-D, gabapentin 1.5-10 mg/Kg every 12 hours orally, WEEK 1
[23] = G1-D, gabapentin 1.5-10 mg/Kg every 12 hours orally, WEEK 2
[24] = G1-D, gabapentin 1.5-10 mg/Kg every 12 hours orally, WEEK 3
[25] = G1-D, gabapentin 1.5-10 mg/Kg every 12 hours orally, WEEK 5
[26] = G1-D, gabapentin 1.5-10 mg/Kg every 12 hours orally, WEEK 6
[27] = G1-D, gabapentin 1.5-10 mg/Kg every 12 hours orally, WEEK 7
[28] = G0-D, fluoxetine 1 mg/Kg every 12 hours orally, WEEK 0
[29] = G0-D, fluoxetine 1 mg/Kg every 12 hours orally, WEEK 4
[30] = G0-D, fluoxetine 1 mg/Kg every 12 hours orally, WEEK 8
[31] = G0-D, fluoxetine 1 mg/Kg every 12 hours orally, WEEK 1
[32] = G0-D, fluoxetine 1 mg/Kg every 12 hours orally, WEEK 2
[33] = G0-D, fluoxetine 1 mg/Kg every 12 hours orally, WEEK 3
[34] = G0-D, fluoxetine 1 mg/Kg every 12 hours orally, WEEK 5
[35] = G0-D, fluoxetine 1 mg/Kg every 12 hours orally, WEEK 6
[36] = G0-D, fluoxetine 1 mg/Kg every 12 hours orally, WEEK 7

CCC1(c2ccccc2)C(=O)NC(=O)NC1=O [Phenobarbital, phenobarbital]
Seizure number per month prior to the study [1, 16]: 3 and 11 and 13 and 2 (3×) and 8 and 7 and 10 and 1 | Clinical adverse effects observed [1, 16]: NONE (6×) and HYPER- and LIGHT SEDATION (3×) | Seizure number per month after the study [1, 16]: 0 (5×) and 4 and 1 (4×)

CC(=O)Nc1ccc(O)cc1 [paracetamol]
toxic dose [2]: 50 mg/kg | toxic dose [3]: 150 mg/kg

CCCCC1C(=O)N(c2ccccc2)N(c2ccccc2)C1=O [phenylbutazone]
adverse effects of claudication treatment [4]: gastric ulcers and necrotizing colitis with protein loss

CC(=O)Oc1ccccc1C(=O)O [acetylsalicylic acid]
dose at which vomiting and gastric ulcers have been described ([5]; intake for 1 week): greater than 50 mg/kg/24 h | dose at which vomiting and gastric ulcers have been described ([5]; intake for 4 weeks): > 100 mg/kg/24 h | toxic dose [6]: 80-120 mg/Kg/24 h | bound to plasma proteins [7]: 90%

NCC1(CC(=O)O)CCCCC1 [Gabapentin]
Reduction of seizures ([1]; 10 mg/kg oral, month 3 of treatment, best result of the doses evaluated): significant reduction of seizures | Seizure number per month prior to the study [1, 17]: 11 and 4 and 5 (2×) and 8 and 10 and 6 and 1 and 3 and 9 | Changes in the type of seizure [1, 17]: NONE (6×) and PARTIAL CONVULSIONS (4×) | Clinical adverse effects observed [1, 17]: NONE (9×) and LIGHT SEDATION | Seizure number per month after the study [1, 17]: 0 (7×) and RESCUED (2×) and 1 | Seizure number per month prior to the study [1, 18]: 8 (3×) and 2 (2×) and 12 and 6 and 4 (2×) and 3 | Changes in the type of seizure [1, 18]: PARTIAL CONVULSIONS (3×) and NONE (4×) and CLONIC TONIC (3×) | Clinical adverse effects observed [1, 18]: LIGHT SEDATION (3×) and NONE (6×) and SOMNOLENCE | Seizure number per month after the study [1, 18]: 2 (2×) and 0 (4×) and 1 (2×) and RESCUED and 3 | Subjective Clinical Evaluation System, global observations [8, 19]: 9 ± 0.86 | Subjective Clinical Evaluation System, global observations [8, 20]: 4 ± 1.02 | Subjective Clinical Evaluation System, global observations [8, 21]: 6 ± 0.73 | Result for the pain treatment (different pain assessment questionnaires) [8]: significantly favorable | Liverpool Osteoarthritis in Dogs questionnaire [9, 19]: 27 ± 2.85 | Liverpool Osteoarthritis in Dogs questionnaire [9, 22]: 24 ± 2.26 | Liverpool Osteoarthritis in Dogs questionnaire [9, 23]: 22 ± 2.35 | Liverpool Osteoarthritis in Dogs questionnaire [9, 24]: 23 ± 3.15 | Liverpool Osteoarthritis in Dogs questionnaire [9, 20]: 22 ± 3.56 | Liverpool Osteoarthritis in Dogs questionnaire [9, 25]: 26 ± 3.15 | Liverpool Osteoarthritis in Dogs questionnaire [9, 26]: 26 ± 2.86 | Liverpool Osteoarthritis in Dogs questionnaire [9, 27]: 23 ± 2.67 | Liverpool Osteoarthritis in Dogs questionnaire [9, 21]: 20 ± 2.35 | Helsinki Chronic Pain Index questionnaire [10, 19]: 22 ± 1.75 | Helsinki Chronic Pain Index questionnaire [10, 22]: 15 ± 3.23 | Helsinki Chronic Pain Index questionnaire [10, 23]: 20 ± 2.87 | Helsinki Chronic Pain Index questionnaire [10, 24]: 15 ± 3.06 | Helsinki Chronic Pain Index questionnaire [10, 20]: 18 ± 2.98 | Helsinki Chronic Pain Index questionnaire [10, 25]: 17 ± 3.68 | Helsinki Chronic Pain Index questionnaire [10, 26]: 18 ± 3.03 | Helsinki Chronic Pain Index questionnaire [10, 27]: 18 ± 2.8 | Helsinki Chronic Pain Index questionnaire [10, 21]: 16 ± 2.42 | average daily gain compared to the control [11]: significantly decreases | concentration of substance P compared to the control [11]: significantly decreases | antihyperalgesic effect ([12]; gabapentin 17.8 mg/Kg subcutaneously): 55% | half-life ([13]; 20 mg/kg IV): 8.5 h | half-life ([13]; 20 mg/kg p.o.): 7.7 h | half-life [14]: 3.4 h | half-life [15]: 3.4 h

CNCCC(Oc1ccc(C(F)(F)F)cc1)c1ccccc1 (centres unmarked) [Fluoxetine]
Subjective Clinical Evaluation System, global observations [8, 28]: 8.5 ± 0.51 | Subjective Clinical Evaluation System, global observations [8, 29]: 8.5 ± 1.19 | Subjective Clinical Evaluation System, global observations [8, 30]: 8 ± 1.79 | Result for the pain treatment (different pain assessment questionnaires) [8]: significantly favorable | Liverpool Osteoarthritis in Dogs questionnaire [9, 28]: 26 ± 2.2 | Liverpool Osteoarthritis in Dogs questionnaire [9, 31]: 23.5 ± 5.4 | Liverpool Osteoarthritis in Dogs questionnaire [9, 32]: 26 ± 5.19 | Liverpool Osteoarthritis in Dogs questionnaire [9, 33]: 22.5 ± 4.52 | Liverpool Osteoarthritis in Dogs questionnaire [9, 29]: 22.5 ± 4.38 | Liverpool Osteoarthritis in Dogs questionnaire [9, 34]: 23 ± 2.95 | Liverpool Osteoarthritis in Dogs questionnaire [9, 35]: 23 ± 2.56 | Liverpool Osteoarthritis in Dogs questionnaire [9, 36]: 22.5 ± 1.95 | Liverpool Osteoarthritis in Dogs questionnaire [9, 30]: 20.5 ± 1.35 | Helsinki Chronic Pain Index questionnaire [10, 28]: 21.5 ± 2.43 | Helsinki Chronic Pain Index questionnaire [10, 31]: 20.5 ± 3.66 | Helsinki Chronic Pain Index questionnaire [10, 32]: 20 ± 3.1 | Helsinki Chronic Pain Index questionnaire [10, 33]: 15.5 ± 3.1 | Helsinki Chronic Pain Index questionnaire [10, 29]: 15.5 ± 2.56 | Helsinki Chronic Pain Index questionnaire [10, 34]: 15 ± 1.54 | Helsinki Chronic Pain Index questionnaire [10, 35]: 14 ± 2.35 | Helsinki Chronic Pain Index questionnaire [10, 36]: 13.5 ± 1.55 | Helsinki Chronic Pain Index questionnaire [10, 30]: 13.5 ± 1.41

CN1CC[C@]23c4c5ccc(O)c4O[C@H]2[C@@H](O)C=C[C@H]3[C@H]1C5 [morphine]
antihyperalgesic effect ([12]; morphine 3.2 mg/Kg subcutaneously): 51.7%

— patent US10610498B2, “Oral veterinary composition with gabapentin” (priority 2015, dated 2020)
